pIC50: −log10 of the molar value.
Assays:
[1] = test system: mice (stay in light compartment); assay: Light and dark box test (anti-anxiety effect); type: in vivo; settings: Mus musculus, po, 0.5 h, male Std-ddY mice, 30 minutes before test, Dunnett test 5%, read-out: Anti-anxiety effect MED (minimum effective dose)
Excerpt: Experiment 2: Light and Dark Box Test (Anti-anxiety Effect)
Anti-anxiety effect of test compounds was examined in a box with light and dark compartments according to the method of Crawley, J. and Goodwin, F. K. [cf., Pharmacol. Biochem. Behav., 13, 167-170 (1980)] with slight modification.
Light and dark box test is a useful, simple and handy method for behaviorally and pharmacologically examining anti-anxiety effect of the drugs, by utilizing the habit of rodents such as mice and rats, etc. which prefer to stay in a dark place, and regarding as positive drug effect the increase of the relative stay of the animals in the light compartment which is an uncomfortable place for the animals. A number of drugs such as cholecystokinin B type receptor antagonists and benzodiazepine drugs, show positive effect in this test.
Light and dark box test was carried out using the test box device (35×17×15 cm) which comprises: a light compartment (20×17×15 cm) consisting of transparent acrylic plates and highly illuminated by an incandescent lamp (1,700 lux); a dark compartment (15×17×15 cm) being made of black acrylic plates connected to the light compartment; and at the boundary of compartments, an opening (4.4×5.0 cm) in which mice can go through freely between two compartments.
Male mice of Std-ddY strain weighing 25-30 g were used in a group of 10. Each trial was started by placing a mouse in the center of the light compartment 30 minutes after oral administration of a test compound, and the time spent by the mouse in the light compartment during a 5 minute observation period was measured, and the rate of the stay of mice in the light compartment to the whole time spent in the experiment was calculated (rate of light compartment stay, %).
The anti-anxiety effect of the test compound was represented by the minimum effective dose (MED) at which the increasing rate of the relative stay in the light compartment was regarded as statistically significant (Dunnett test, significance level: 5%). 4.

BZω3 receptor = target: T1, BZω3 receptor (Rattus norvegicus, UniProt P16257); assay: BZω3 (peripheral) benzodiazepine receptor binding assay, [3H] 4'-chlorodiazepam (Ro 5-4864); settings: rat kidney membrane, [3H] Ro 5-4864 0.5 nM, 150 minutes at 0° C.; read-out: ω3 IC50
T1 construct: from tissue; host or cells: rat (Wistar) kidney membrane fraction
Description: Experiment 1: Central (ω1,ω2) and Peripheral (ω3) Benzodiazepine Receptor Binding Assays
BZω1 and BZω2 receptor binding assays and the preparation of receptor membrane fractions therefor were carried out according to the method of Stephens, D. N. et al. [cf., J. Pharmacol. Exp. Ther., 253, 334-343 (1990)], and BZω3 receptor binding assay and the preparation of receptor membrane fraction therefor were done according to the method of Schoemaker, H. [cf, J. Pharmacol. Exp. Ther., 225, 61-69 (1983)] each with slight modification.
Receptor membrane fractions for ω1, ω2 and ω3 were prepared from the cerebellum (ω1), spinal cord (ω2) or kidney (ω3) in 7-8 week old male rats of Wistar strain, respectively, by the procedure described below.
After the cerebellum or spinal cord was homogenized with 20 volumes of ice-cold 50 mM Tris-citrate buffer (pH 7.1), the homogenate was centrifuged for 15 minutes at 40,000 g. The pellet obtained was washed 4 times by the same procedure, and frozen and stored for 24 hours at −60° C. The resulting pellet, after being thawed, washed with the buffer and centrifuged, was suspended in the buffer I for the binding assay (50 mM Tris-HCl buffer containing 120 mM NaCl, 5 mM KCl, 2 mM CaCl2 and 1 mM MgCl2; pH 7.4) and the suspension thus obtained (containing 1 g wet tissue/40 ml) was used for the BZω1 and BZω2receptor binding assays. On the other hand, the kidney was homogenized with 20 volumes of the ice-cold buffer II for the binding assay (50 mM Na-K phosphate buffer containing 100 mM NaCl; pH 7.4), and the mixture was filtered through 4 sheets of gauze, and centrifuged for 20 minutes at 40,000 g. The pellet obtained was suspended in the buffer II and the suspension (containing 1 g wet tissue/100 ml) was used for the binding assay as BZω3 receptor membrane source.
[^3H] Flumazenil (Ro 15-1788) (final concentration: 0.3 nM for ω1, and 1 nM for ω2) and flunitrazepam (final concentration: 10 μM) were used for the BZω1 or BZω2 receptor binding assays as the isotope-labeled and unlabeled ligands, respectively. For the BZω3 receptor binding assay, [^3H] 4′-chlorodiazepam (7-chloro-1,3-dihydro-1-methyl-5-(4-chlorophenyl)-2H-1,4-diazepin-2-one) (Ro 5-4864) (final concentration: 0.5 nM) and diazepam (final concentration: 100 μM) were used as the isotope-labeled and unlabeled ligands, respectively. Incubation was performed for 30 minutes at 37° C. in the BZω1 or BZω2 receptor binding assays, and for 150 minutes at 0° C. in the BZω3 receptor binding assay. The BZω1 or BZω2 receptor binding assays were carried out in the presence of bicuculline (final concentration: 100 μM).
The binding assay was performed by the following procedure. After adding each test compound at certain known concentrations, a [^3H] ligand, and the buffer I or II to each test tube, each assay was started by addition of membrane preparation (total volume of 1 ml). After incubation, the assay was terminated by filtration with suction through a Whatman GF/B glass fiber filter using a cell harvester (Brandel, USA). The filters were rapidly washed 3 times with 5 ml of ice-cold 50 mM Tris-HCl buffer (pH 7.7) for ω1 and ω2, or the buffer II for ω3, and transferred to scintillation vials containing 10 ml liquid scintillation cocktail (ACS-II, Amersham, USA). After being allowed to stand for a specific period, retained radioactivity was counted by a liquid scintillation spectrometer. Specific binding of [^3H] ligands was calculated as the difference between amounts of radioactivity bound in the presence and absence of excess unlabeled ligands. The concentration of the test compounds causing 50% inhibition of specific binding of the [3H] ligand (IC50) was determined by probit analysis.

| SMILES | minimal effective dose [1] [µg/kg] | pIC50 (BZω3 receptor) | melting point [°C] |
| --- | --- | --- | --- |
| CN(C(=O)Cn1c(=O)n(C)c2nc(-c3ccccc3)ncc21)c1ccccc1 [Example 2, 8,9-dihydro-9-methyl-N-methyl-8-oxo-2-phenyl-N-phenyl-7H-purin-7-acetamide] | 1 to 3 | 8.92 | 147 to 148 |
| CN(C(=O)Cn1c(=O)n(C)c2nc(-c3ccc(F)cc3)ncc21)c1ccccc1 [Example 5, 8,9-dihydro-2-(4-fluorophenyl)-9-methyl-N-methyl-8-oxo-N-phenyl-7H-purin-7-acetamide] | 1 to 3 | 8.89 | 169 to 170 |
| CCN(C(=O)Cn1c(=O)n(C)c2nc(-c3ccc(F)cc3)ncc21)c1ccccc1 [Example 12, N-ethyl-8,9-dihydro-2-(4-fluorophenyl)-9-methyl-8-oxo-N-phenyl-7H-purin-7-acetamide] | 10 | 8.82 | 211 to 212 |
| CN(Cc1ccccc1)C(=O)Cn1c(=O)n(C)c2nc(-c3ccc(F)cc3)ncc21 [Example 50] | 100 | 9.10 | 170 to 171 |
| CCN(Cc1ccccc1)C(=O)Cn1c(=O)n(C)c2nc(-c3ccccc3)ncc21 [Example 54] |  | 9.08 | 112 to 115 |
| CCN(Cc1ccccc1)C(=O)Cn1c(=O)n(C)c2nc(-c3ccc(F)cc3)ncc21 [Example 56] |  | 8.85 | 155 to 157 |
| CN(Cc1ccccc1F)C(=O)Cn1c(=O)n(C)c2nc(-c3ccccc3)ncc21 [Example 71] |  | 9.37 | 198 to 199 |
| COc1ccc(CN(C)C(=O)Cn2c(=O)n(C)c3nc(-c4ccccc4)ncc32)cc1 [Example 73] |  | 8.77 | 174 to 176 |
| CCN(Cc1ccc(F)cc1)C(=O)Cn1c(=O)n(C)c2nc(-c3ccccc3)ncc21 [Example 74] |  | 9.00 | 166 to 167 |
| CCN(Cc1cccc(F)c1)C(=O)Cn1c(=O)n(C)c2nc(-c3ccccc3)ncc21 [Example 75] |  | 8.89 | 144 to 145 |
| CCCN(CCC)C(=O)Cn1c(=O)[nH]c2cnc(-c3ccc(F)cc3)nc21 [Example 81] |  | 8.30 | 213 to 215 |
| CCCN(CCC)C(=O)Cn1c(=O)[nH]c2cnc(-c3ccc([N+](=O)[O-])cc3)nc21 [Example 83] |  | 8.89 | 256 to 258 |
| CCN(Cc1ccccc1)C(=O)Cn1c(=O)[nH]c2cnc(-c3ccc(OC)cc3)nc21 [Example 94] |  | 8.57 | 216 to 218 |
| CN(C(=O)Cn1c(=O)[nH]c2cnc(-c3ccccc3)nc21)c1cccc(Cl)c1 [Example 99] |  | 8.85 | 234 to 236 |
| COc1ccc(N(C)C(=O)Cn2c(=O)[nH]c3cnc(-c4ccccc4)nc32)cc1 [Example 101] |  | 8.89 | 238 to 240 |
| CCN(C(=O)Cn1c(=O)[nH]c2cnc(-c3ccccc3)nc21)c1ccccc1 [Example 103] |  | 9.10 | 237 to 238 |

| SMILES | minimal effective dose [1] [µg/kg] | pIC50 (BZω3 receptor) | melting point [°C] |
| --- | --- | --- | --- |
| CCCN(CCC)C(=O)Cn1c(=O)n(C)c2cnc(-c3ccc(F)cc3)nc21 [Example 113] |  | 9.01 | 140 to 141 |
| CCCN(CCC)C(=O)Cn1c(=O)n(C)c2cnc(-c3ccc(OC)cc3)nc21 [Example 114] |  | 9.01 | 157 to 158 |
| CCCN(CCC)C(=O)Cn1c(=O)n(CC)c2cnc(-c3ccc(Cl)cc3)nc21 [Example 116] | 10 | 8.68 | 158 to 159 |
| CN(Cc1ccccc1)C(=O)Cn1c(=O)n(C)c2cnc(-c3ccccc3)nc21 [Example 136, N-benzyl-7,8-dihydro-N-methyl-7-methyl-8-oxo-2-phenyl-9H-purin-9-acetamide] |  | 9.18 | 169 to 170 |
| CN(Cc1ccccc1)C(=O)Cn1c(=O)n(C)c2cnc(-c3ccc(Cl)cc3)nc21 [Example 137, N-benzyl-7,8-dihydro-N-methyl-7-methyl-8-oxo-2-(4-chlorophenyl)-9H-purin-9-acetamide] | 1 to 3 | 8.89 | 241 to 242 |
| CCn1c(=O)n(CC(=O)N(C)Cc2ccccc2)c2nc(-c3ccccc3)ncc21 [Example 140] |  | 9.06 | 147 to 149 |
| CCN(Cc1ccccc1)C(=O)Cn1c(=O)n(C)c2cnc(-c3ccc(Cl)cc3)nc21 [Example 147, N-benzyl-N-ethyl-7,8-dihydro-7-methyl-8-oxo-2-(4-chlorophenyl)-9H-purin-9-acetamide] | 1 to 3 | 8.96 | 172 to 173 |
| CCN(Cc1ccccc1)C(=O)Cn1c(=O)n(CC)c2cnc(-c3ccccc3)nc21 [Example 150] |  | 9.09 | 134 to 136 |
| CCN(Cc1ccccc1)C(=O)Cn1c(=O)n(CC)c2cnc(-c3ccc(Cl)cc3)nc21 [Example 151] |  | 8.64 | 157 to 158 |
| CN(C(=O)Cn1c(=O)n(C)c2cnc(-c3ccccc3)nc21)c1ccccc1 [Example 156] |  | 9.17 | 202 to 203 |
| CCn1c(=O)n(CC(=O)N(C)c2cccc(Cl)c2)c2nc(-c3ccccc3)ncc21 [Example 161] |  | 8.96 | 205 to 207 |
| CCn1c(=O)n(CC(=O)N(C)c2ccc(Cl)cc2)c2nc(-c3ccccc3)ncc21 [Example 162] |  | 8.96 | 173 to 175 |
| COc1ccc(N(C)C(=O)Cn2c(=O)n(C)c3cnc(-c4ccccc4)nc32)cc1 [Example 163] | 100 | 9.14 | 172 to 174 |
| CCN(C(=O)Cn1c(=O)n(C)c2cnc(-c3ccccc3)nc21)c1ccccc1 [Example 166] |  | 8.92 | 180 to 181 |
| CCCN(C(=O)Cn1c(=O)n(CC)c2cnc(-c3ccccc3)nc21)c1ccccc1 [Example 170] |  | 8.74 | 151 to 152 |
| CCn1c(=O)n(CC(=O)N(C)c2ccccc2)c2nc(-c3cccnc3)ncc21 [Example 172] |  | 8.46 | 199 to 200 |
